Laboratory results published in US8158791B2, “Aza-substituted spiro derivatives” (MSD K.K., priority 2005, dated 2012).

Molecular target: T1, human histamine-H3 receptor (Homo sapiens, UniProt Q9Y5N1)
T1 construct: expressed in transfected cells; host or cells: HEK293 and CHO-K1 (membrane preparation)
Assay: Histamine analogue-binding inhibition test
Conditions: 50% inhibitory concentration to specific [3H]N-α-methylhistamine binding; membrane specimen of histamine-H3 receptor expression cells; 25° C., 2 hours, pH 7.4
From the text: A cDNA sequence coding for a human histamine-H3 receptor [see WO00/39164) was cloned with expression vectors pCR2.1, pEF1× (by Invitrogen) and pCI-neo (by Promega). The resulting expression vector was transfected into host cells, HEK293 and CHO-K1 (American Type Culture Collection), according to a cationic lipid process [see Proceedings of the National Academy of Sciences of the United States of America, Vol., 84, p. 7413 (1987)] to obtain histamine-H3 receptor expression cells.
A membrane specimen prepared from the cells having expressed a histamine-H3 receptor was incubated in an assay buffer (50 mM Tris buffer, pH 7.4) along with a test compound and 20,000 cpm [3H]N-α-methylhistamine (by NEN) therein, at 25° C. for 2 hours, and then filtered through a glass filter GF/C. After washed with 50 mM Tris buffer (pH 7.4), the radioactivity on the glass filter was determined. The non-specific binding was determined in the presence of 10 μM thioperamide (by SIGAM), and the 50% inhibitory concentration (IC50) of the test compound to the specific N-alpha-methylhistamine binding was calculated [see Molecular Pharmacology, Vol. 55, p. 1101 (1999)].

T1 sequence (Q9Y5N1 whole entry): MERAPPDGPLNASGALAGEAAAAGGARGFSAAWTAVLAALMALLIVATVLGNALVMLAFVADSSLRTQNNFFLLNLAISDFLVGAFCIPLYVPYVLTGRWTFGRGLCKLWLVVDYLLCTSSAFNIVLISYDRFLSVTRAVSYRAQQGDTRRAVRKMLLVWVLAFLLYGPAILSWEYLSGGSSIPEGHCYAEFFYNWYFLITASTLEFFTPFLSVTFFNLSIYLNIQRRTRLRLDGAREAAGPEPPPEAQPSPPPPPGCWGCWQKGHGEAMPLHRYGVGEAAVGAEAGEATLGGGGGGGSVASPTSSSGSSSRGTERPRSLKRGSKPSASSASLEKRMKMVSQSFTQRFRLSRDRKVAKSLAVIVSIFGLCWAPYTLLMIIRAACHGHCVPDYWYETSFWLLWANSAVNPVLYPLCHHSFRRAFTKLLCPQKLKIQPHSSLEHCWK

IC50 [nM] | Structure (SMILES)
0.72 | CN(CCN1CCCC1)C(=O)[C@H]1CC[C@@]2(CC1)OC(=O)c1ncccc12 [Example 3, Trans-3′-oxo-N-methyl-N-(2-pyrrolidin-1-ylethyl)-spiro[cyclohexane-1,1′-(3′H)-4′-azaisobenzofuran]-4-carboxamide]
0.92 | COc1ccc2c(n1)C(=O)O[C@]21CC[C@H](C(=O)N(C)CCN2CCCCC2)CC1 [Example 11, Trans-5′-methoxy-3′-oxo-N-methyl-N-(2-piperidin-1-ylethyl)-spiro[cyclohexane-1,1′-(3′H)-4′-azaisobenzofuran]-4-carboxamide]
0.92 | COc1ccc2c(n1)C(=O)O[C@]21CC[C@H](C(=O)N(C)CCN2CCCC2)CC1 [Example 13, Trans-5′-methoxy-3′-oxo-N-methyl-N-(2-pyrrolidin-1-ylethyl)-spiro[cyclohexane-1,1′-(3′H)-4′-azaisobenzofuran]-4-carboxamide]
1.9 | CN(CCN1CCCC1)C(=O)[C@H]1CC[C@@]2(CC1)OC(=O)c1nc(N3CCCCC3)ccc12 [Example 17, Trans-5′-(piperidin-1-yl)-3′-oxo-N-methyl-N-(2-pyrrolidin-1-ylethyl)-spiro[cyclohexane-1,1′-(3′H)-4′-azaisobenzofuran]-4-carboxamide]
0.42 | CN(CCN1CCCC1)C(=O)[C@H]1CC[C@@]2(CC1)OC(=O)c1nc(-c3ccccc3)ccc12 [Example 21, Trans-5′-phenyl-3′-oxo-N-methyl-N-(2-pyrrolidin-1-ylethyl)-spiro[cyclohexane-1,1′-(3′H)-4′-azaisobenzofuran]-4-carboxamide]
0.32 | COc1nccc2c1C(=O)O[C@]21CC[C@H](C(=O)N(C)CCN2CCCCC2)CC1 [Example 34, Trans-4′-methoxy-3′-oxo-N-methyl-N-(2-piperidin-1-ylethyl)-spiro[cyclohexane-1,1′-(3′H)-5′-azaisobenzofuran]-4-carboxamide]
0.51 | Cc1nccc2c1C(=O)O[C@]21CC[C@H](C(=O)N(C)CCN2CCCCC2)CC1 [Example 41, Trans-4′-methyl-3′-oxo-N-methyl-N-(2-piperidin-1-ylethyl)-spiro[cyclohexane-1,1′-(3′H)-5′-azaisobenzofuran]-4-carboxamide]
0.14 | CN(CCN1CCCCC1)C(=O)[C@H]1CC[C@@]2(CC1)OC(=O)c1c(-c3cnn(C)c3)nccc12 [Example 45, Trans-4′-(1-methyl-1H-pyrazol-4-yl)-3′-oxo-N-methyl-N-(2-piperidin-1-ylethyl)-spiro[cyclohexane-1,1′-(3′H)-5′-azaisobenzofuran]-4-carboxamide]
0.07 | CN(CCN1CCCCC1)C(=O)[C@H]1CC[C@@]2(CC1)OC(=O)c1nc(-c3cnccn3)ccc12 [Example 54, Trans-5′-pyrazinyl-3′-oxo-N-methyl-N-(2-piperidin-1-ylethyl)-spiro[cyclohexane-1,1′-(3′H)-4′-azisobenzofuran]-4-carboxamide]
